From ChEMBL document CHEMBL4414598, “Trifluorinated Pyrimidine-Based A2B Antagonists: Optimization and Evidence of Stereospecific Recognition” (J Med Chem, 2019)
pKi: −log10 of the molar value.

Assays:
[1] = biological target: T1, Adenosine receptor A3 (Homo sapiens, UniProt P0DMS8); experiment: Displacement of [3H]NECA from human A3 receptor expressed in human HeLa cell membranes incubated for 180 mins by radioligand binding competition assay
T1 sequence (P0DMS8 whole entry): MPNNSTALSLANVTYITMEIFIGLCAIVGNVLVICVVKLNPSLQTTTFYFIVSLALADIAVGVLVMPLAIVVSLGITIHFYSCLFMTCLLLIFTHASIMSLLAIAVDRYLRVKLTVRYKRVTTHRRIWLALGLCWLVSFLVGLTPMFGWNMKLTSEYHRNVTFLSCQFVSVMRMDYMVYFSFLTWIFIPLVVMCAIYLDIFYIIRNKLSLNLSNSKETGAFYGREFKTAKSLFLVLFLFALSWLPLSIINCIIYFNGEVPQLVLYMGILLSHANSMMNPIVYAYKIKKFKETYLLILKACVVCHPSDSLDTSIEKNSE

[2] = biological target: T2, Adenosine receptor A2a (Homo sapiens, UniProt P29274); experiment: Displacement of [3H]ZM241385 from human recombinant A2A receptor expressed in human HeLa cell membranes incubated for 30 mins by radioligand binding competition assay
[3] = biological target: T3, Adenosine receptor A1 (Homo sapiens, UniProt P30542); experiment: Displacement of [3H]DPCPX from human recombinant A1 receptor expressed in CHOA1 cell membranes incubated for 60 mins by radioligand binding competition assay
T3 sequence (P30542 whole entry): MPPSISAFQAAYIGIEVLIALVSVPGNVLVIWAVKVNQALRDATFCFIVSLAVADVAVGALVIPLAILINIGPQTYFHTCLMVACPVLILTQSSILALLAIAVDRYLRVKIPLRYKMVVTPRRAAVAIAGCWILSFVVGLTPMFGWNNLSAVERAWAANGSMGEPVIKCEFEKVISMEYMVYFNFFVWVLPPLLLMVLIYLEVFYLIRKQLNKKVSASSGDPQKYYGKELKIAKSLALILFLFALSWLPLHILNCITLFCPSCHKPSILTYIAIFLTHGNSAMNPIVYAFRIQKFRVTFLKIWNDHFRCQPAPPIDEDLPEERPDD

[4] = biological target: T4, Adenosine receptor A3 (Homo sapiens) (UniProt P0DMS8); experiment: Displacement of [3H]NECA from human A3 receptor expressed in human HeLa cell membranes at 1 uM incubated for 180 mins by radioligand binding competition assay relative to control
T4 sequence (whole entry): T1 sequence (P0DMS8 whole entry)

[5] = biological target: T5, Adenosine receptor A1 (Homo sapiens) (UniProt P30542); experiment: Displacement of [3H]DPCPX from human recombinant A1 receptor expressed in CHOA1 cell membranes at 1 uM incubated for 60 mins by radioligand binding competition assay relative to control
T5 sequence (whole entry): T3 sequence (P30542 whole entry)

[6] = biological target: T2, Adenosine receptor A2a; experiment: Displacement of [3H]ZM241385 from human recombinant A2A receptor expressed in human HeLa cell membranes at 1 uM incubated for 30 mins by radioligand binding competition assay relative to control
[7] = organism: Homo sapiens; experiment: Selectivity index, ratio of Ki for displacement of [3H]ZM241385 from human recombinant A2A receptor expressed in human HeLa cell membranes incubated for 30 mins by radioligand binding competition assay to Ki for displacement of [3H]DPCPX from human recombinant A2B receptor expressed in human HEK293 cell membranes at 1 uM incubated for 30 mins by radioligand binding competition assay
[8] = organism: Homo sapiens; experiment: Selectivity index, ratio of Ki for displacement of [3H]DPCPX from human recombinant A1 receptor expressed in CHOA1 cell membranes incubated for 60 mins by radioligand binding competition assay to Ki for displacement of [3H]DPCPX from human recombinant A2B receptor expressed in human HEK293 cell membranes at 1 uM incubated for 30 mins by radioligand binding competition assay
[9] = organism: Homo sapiens; experiment: Selectivity index, ratio of Ki for displacement of [3H]NECA from human A3 receptor expressed in human HeLa cell membranes incubated for 180 mins by radioligand binding competition assay to Ki for displacement of [3H]DPCPX from human recombinant A2B receptor expressed in human HEK293 cell membranes at 1 uM incubated for 30 mins by radioligand binding competition assay
[10] = biological target: T6, Adenosine receptor A2b (Homo sapiens, UniProt P29275); experiment: Displacement of [3H]DPCPX from human recombinant A2B receptor expressed in human HEK293 cell membranes incubated for 30 mins by radioligand binding competition assay
T6 sequence (P29275 whole entry): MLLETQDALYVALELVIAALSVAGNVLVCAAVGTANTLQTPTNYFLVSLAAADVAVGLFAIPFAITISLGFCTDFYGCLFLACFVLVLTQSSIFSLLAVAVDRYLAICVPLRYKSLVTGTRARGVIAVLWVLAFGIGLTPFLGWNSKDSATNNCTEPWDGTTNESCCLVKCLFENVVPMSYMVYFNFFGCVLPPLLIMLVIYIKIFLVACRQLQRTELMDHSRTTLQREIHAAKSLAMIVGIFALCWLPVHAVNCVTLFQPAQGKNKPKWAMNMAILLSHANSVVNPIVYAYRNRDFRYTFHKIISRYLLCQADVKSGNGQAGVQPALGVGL

T2 sequence (P29274 whole entry): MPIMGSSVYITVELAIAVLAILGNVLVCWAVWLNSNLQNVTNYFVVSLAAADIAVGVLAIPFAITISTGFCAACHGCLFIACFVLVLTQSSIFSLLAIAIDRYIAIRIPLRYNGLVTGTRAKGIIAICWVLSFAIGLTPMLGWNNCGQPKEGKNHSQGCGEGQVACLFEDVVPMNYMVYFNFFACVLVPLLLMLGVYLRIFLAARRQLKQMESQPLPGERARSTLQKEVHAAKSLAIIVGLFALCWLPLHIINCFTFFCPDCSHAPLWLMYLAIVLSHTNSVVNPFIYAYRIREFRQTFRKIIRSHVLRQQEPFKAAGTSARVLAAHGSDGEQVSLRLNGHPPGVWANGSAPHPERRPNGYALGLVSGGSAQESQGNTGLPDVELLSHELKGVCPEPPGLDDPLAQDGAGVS

| SMILES | pKi [1] | pKi [2] | pKi [3] | inhibition [4] [%] | inhibition [5] [%] | inhibition [6] [%] | Ratio Ki [7] | Ratio Ki [8] | Ratio Ki [9] | pKi [10] |
| --- | --- | --- | --- | --- | --- | --- | --- | --- | --- | --- |
| CC1=C(C(=O)OC(C)C)C(c2ccco2)n2c(nc3ccccc32)N1 (stereo not given) | 8.70 | 7.55 | 7.70 | 2 | 20 | 28 |  |  |  |  |
| CC1=C(C(=O)OCC(F)(F)F)C(c2ccoc2)n2c(nc3ccccc32)N1 (racemic) |  |  |  | 1 | 14 | 11 | > 1000 | > 1000 | > 1000 | 7.38 |
| CC1=C(C(=O)OC(C)C(F)(F)F)C(c2ccoc2)n2c(nc3ccccc32)N1 (racemic) |  |  |  | 3 | 2 | 3 | > 1000 | > 1000 | > 1000 | 7.28 |
